These results are taken from ChEMBL document CHEMBL4184110 (Bioorg Med Chem Lett, 2018).

SMILES strings stand for the structures.

For one data set, the target named is T1, Vitamin D3 receptor (Homo sapiens, UniProt P11473).
T1 sequence (P11473 whole entry): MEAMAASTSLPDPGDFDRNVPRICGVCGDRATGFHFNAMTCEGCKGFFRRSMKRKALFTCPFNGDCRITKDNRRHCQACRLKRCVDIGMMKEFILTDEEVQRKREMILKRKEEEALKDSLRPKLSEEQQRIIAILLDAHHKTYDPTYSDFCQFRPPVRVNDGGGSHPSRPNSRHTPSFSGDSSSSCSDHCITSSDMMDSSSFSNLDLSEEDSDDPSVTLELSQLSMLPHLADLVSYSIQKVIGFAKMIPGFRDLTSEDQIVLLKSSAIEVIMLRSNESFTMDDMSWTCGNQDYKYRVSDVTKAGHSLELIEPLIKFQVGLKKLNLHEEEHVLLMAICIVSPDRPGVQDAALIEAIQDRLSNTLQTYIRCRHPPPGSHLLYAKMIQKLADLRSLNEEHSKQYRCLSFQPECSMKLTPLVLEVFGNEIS
Briefly: Antagonist activity at VP16-fused VDR-LBD (unknown origin) expressed in HEK293T cells assessed as inhibition of ligand-induced GAL4-fused SRC1 coactivator recruitment by two-hybrid luciferase reporter gene assay. The format is cell-based. For orientation: Reporter assays use an easily measured gene product as a stand-in for the process of interest.

Data set [1] addresses T2, Peroxisome proliferator-activated receptor delta (Homo sapiens, UniProt Q03181).
T2 sequence (Q03181 whole entry): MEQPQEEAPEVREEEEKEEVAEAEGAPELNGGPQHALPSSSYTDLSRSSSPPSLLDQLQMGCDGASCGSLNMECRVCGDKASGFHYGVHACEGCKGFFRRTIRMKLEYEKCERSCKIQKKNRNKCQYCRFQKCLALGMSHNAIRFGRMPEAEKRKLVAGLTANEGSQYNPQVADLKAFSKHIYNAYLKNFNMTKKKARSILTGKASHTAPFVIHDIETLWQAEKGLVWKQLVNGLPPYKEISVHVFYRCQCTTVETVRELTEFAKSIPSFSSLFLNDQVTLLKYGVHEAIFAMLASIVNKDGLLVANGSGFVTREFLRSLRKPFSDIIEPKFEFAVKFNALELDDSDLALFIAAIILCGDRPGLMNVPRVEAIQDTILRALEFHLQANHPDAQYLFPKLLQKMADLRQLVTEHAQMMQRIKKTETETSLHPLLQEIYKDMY
Briefly: Antagonist activity at CMV-fused PPARdelta-LBD-GAL4-DBD (unknown origin) expressed in HEK293T cells assessed as inhibition of GW0742-induced receptor transactivation after 16 hrs by bright-Glo luciferase reporter gene assay. The format is cell-based.

Data set [2] deals with T3, Luciferin 4-monooxygenase (Photuris pensylvanica, UniProt Q27757).
T3 sequence (Q27757 whole entry): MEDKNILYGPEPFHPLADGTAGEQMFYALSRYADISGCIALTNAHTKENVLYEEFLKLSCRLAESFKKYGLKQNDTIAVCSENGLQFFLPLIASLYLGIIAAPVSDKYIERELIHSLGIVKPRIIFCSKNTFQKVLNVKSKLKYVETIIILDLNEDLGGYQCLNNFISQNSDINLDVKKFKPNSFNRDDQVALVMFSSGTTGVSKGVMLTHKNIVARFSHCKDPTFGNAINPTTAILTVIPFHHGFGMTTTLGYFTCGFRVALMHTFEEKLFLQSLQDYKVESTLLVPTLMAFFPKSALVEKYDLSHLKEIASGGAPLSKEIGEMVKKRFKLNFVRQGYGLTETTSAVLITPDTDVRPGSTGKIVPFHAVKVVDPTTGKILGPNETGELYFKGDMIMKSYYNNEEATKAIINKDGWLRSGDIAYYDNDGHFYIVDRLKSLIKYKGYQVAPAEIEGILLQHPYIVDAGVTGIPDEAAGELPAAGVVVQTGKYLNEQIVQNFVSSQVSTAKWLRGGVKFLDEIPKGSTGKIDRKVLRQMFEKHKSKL
The data set can be described thus: Inhibition of Photuris pennsylvanica luciferase after 45 mins by CellTiter-Glo based luminescence assay. The settings on record: 0.75 h. A general note: Cellular ATP, detected with luciferase, serves as a proxy for viable cell number.

Turning to `COC(=O)c1ccc(OCc2oc(-c3cccc(OC)c3)nc2C)cc1`, the IC50 (in general, the midpoint of a concentration-inhibition curve) at Vitamin D3 receptor was found to be 8.89 µM; in data set [1], 10.9 µM. In addition, the “inhibition (INH)” value in data set [2] was “Not Active”.
For `COC(=O)c1cccc(OCc2oc(-c3ccccc3OC)nc2C)c1`, the IC50 worked out at 7.33 µM on Vitamin D3 receptor and 10.9 µM in data set [1].
Take `COC(=O)Cc1ccc(OCc2oc(-c3cccc(OC)c3)nc2C)cc1`: the concentration for half-maximal inhibition (IC50) on Vitamin D3 receptor is 13.9 µM; in data set [1] it was 11.3 µM. The “inhibition (INH)” value in data set [2] is reported as “Not Active”.
As to `COC(=O)Cc1ccc(OCc2oc(-c3ccccc3OC)nc2C)cc1`, the IC50 on Vitamin D3 receptor was 11.1 µM; in data set [1], 6.6 µM.
